Test results: publication PMC11211491, “Design of a covalent protein-protein interaction inhibitor of SRPKs to suppress angiogenesis and invasion of cancer cells” (Communications Chemistry, 2024)
Square brackets hold non-standard residues; d marks the D form. Peptide text beside a SMILES is read from it. * marks the point of attachment. Benzoyl(4-SO2F) = O=C(c1ccc(S(=O)(=O)F)cc1)*; Dap = NC[C@H](N)C(=O)O

What was measured:
A549 cells = test: Cellular uptake and endo/lysosomal escape (confocal microscopy); format: cell-based, human
Protocol: A549 cells (20 × 10^4 per well) were seeded into confocal dishes (SPL Life Sciences) and incubated for adhesion overnight at 37 °C in 5% CO2. 6-FAM-labeled C-DSB or control peptide was diluted to Opti-MEM medium (Gibco) and added to the cells for 24-h incubation. C-DBS was washed with PBS containing 20 U/mL heparin (Sigma-Aldrich) and stained with 40 μM Hoechst 33342 (Life Technologies) and 5 μg/mL Wheat Germ Agglutinin Alexa Fluor 647 Conjugate (Life Technologies) for 20 min. After removing excess dye, cell images were captured by the Leica TCS SP8 Confocal Microscope System. To detect the endo/lysosomal escape of C-DBS, 50 nM Lysotracker Red (Life Technologies) was used to stain the endo/lysosomes. Fluorescence intensity profiles of the region of interest (ROI) were analyzed using ImageJ software.

HEK-293 = test: Cell viability assay (MTT); format: cell-based, human; conditions: HEK-293, up to 100 μM, 24 h
Protocol: (§1) Cells (6 × 10^3 per well) were seeded into a 96-well plate. After overnight incubation, cells were treated with different concentrations of C-DBS for 24 h. The viability of the cells was determined using 3-(4,5-dimethylthiazol-2-yl)-2,5-diphenyltetrazolium bromide (MTT) (Roche). Absorption at 570 nm was measured using a microplate reader (BMG, CLARIOstar) according to the manufacturer’s instructions.

MDA-MB-231 = test: Cell viability assay (MTT); format: cell-based, human; conditions: MDA-MB-231, up to 100 μM, 24 h
Protocol: as §1

A549 = test: Cell viability assay (MTT); format: cell-based, human; conditions: A549, up to 100 μM, 24 h
Protocol: as §1

HeLa = test: Cell viability assay (MTT); format: cell-based, human; conditions: up to 100 μM, 24 h
Protocol: as §1

SRPK1ΔNS3 = conditions: quoted for comparison, earlier work on DBS1; read-out: Kd of DBS1 for SRPK1; cited from earlier work
From the text: Because DBS1 targets the docking groove of SRPK, we tested the specificity of C-DBS toward the same binding site. We performed fluorescence polarization (FP) assay to examine the direct noncovalent interaction between C-DBS and SRPK1ΔNS3, as well as the docking groove mutant SRPK1ΔNS3_DM that contains alanine substitutions at four docking groove residues—D548, D564, E571, and K615—that are essential for the binding and phosphorylation of the substrate (Fig. 2a)[11],[12],[36].

Row | Compound | cellular uptake (A549 cells; A549, 10 μM FAM-labeled peptide, 24 h, Opti-MEM, confocal fluorescence microscopy) | endo/lysosomal trapping after internalization (A549 cells; A549, LysoTracker Red, 1.5 or 24 h incubation) | cytotoxicity (MTT) (HEK-293) | cytotoxicity (MTT) (MDA-MB-231) | cytotoxicity (MTT) (A549) | cytotoxicity (MTT) (HeLa) | Kd (SRPK1ΔNS3)
1 | CC(=O)N[C@@H](CCCNC(=N)N)C(=O)N[C@@H](CCC(=O)O)C(=O)N[C@@H](CCCNC(=N)N)C(=O)N[C@@H](C)C(=O)N[C@@H](CCCNC(=N)N)C(=O)N[C@H](C(=O)N[C@@H](CCCNC(=N)N)C(=O)N[C@@H](CCCNC(=N)N)C(=O)N[C@@H](CNC(=O)c1ccc(S(=O)(=O)F)cc1)C(=O)N[C@@H](CCCNC(=N)N)C(=O)N[C@@H](C)C(=O)N[C@@H](CCCNC(=N)N)C(=O)N[C@H](C(=O)N[C@@H](CCCNC(=N)N)C(=O)N[C@@H](CCC(=O)O)C(=O)N[C@@H](CCCNC(=N)N)C(=O)N[C@@H](C)C(=O)N[C@@H](CCCNC(=N)N)C(=O)N[C@H](C(=O)N[C@@H](CCCNC(=N)N)C(N)=O)[C@@H](C)O)[C@@H](C)O)[C@@H](C)O [C-DBS] (Ac-RERARTRR[Dap](Benzoyl(4-SO2F))RARTRERARTR-NH2) | readily internalized by the A549 cells | not trapped in endolysosomal compartments after internalization | no cytotoxicity | no cytotoxicity | no cytotoxicity | no cytotoxicity | –
2 | RERARTRRE^9RARTRERARTR [DBS1] | – | – | – | – | – | – | 3.2 ± 1.5 µM
